Test results taken from PubChem BioAssay (NCI).
Several values for one entry are separate records, joined by “and”; a condition that tells them apart may be missing. Equal values may be shown once.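 Five concentrations, 48 hours, 96-well plates. Abbreviation: GI50, concentration required for 50% inhibition of growth. TGI: concentration producing complete growth inhibition.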

Assays:
Test in all cases: inhibition of tumour cell growth, NCI panel, 48 h
DU-145 prostate = tested on: DU-145 prostate
MOLT-4 leukemia = tested on: MOLT-4 leukemia
NCI-H522 lung = tested on: NCI-H522 lung
CAKI-1 renal = tested on: CAKI-1 renal
OVCAR-5 ovarian = tested on: OVCAR-5 ovarian
NCI-H23 lung = tested on: NCI-H23 lung
OVCAR-3 ovarian = tested on: OVCAR-3 ovarian
HS 578T breast = tested on: HS 578T breast
HOP-62 NSCLC = tested on: HOP-62 NSCLC
SK-OV-3 ovarian = tested on: SK-OV-3 ovarian

SMILES	TGI (DU-145 prostate)	TGI (MOLT-4 leukemia)	TGI (NCI-H522 lung)	TGI (CAKI-1 renal)	TGI (OVCAR-5 ovarian)	TGI (NCI-H23 lung)	TGI (OVCAR-3 ovarian)	TGI (HS 578T breast)	TGI (HOP-62 NSCLC)	TGI (SK-OV-3 ovarian)	GI50 (DU-145 prostate)	GI50 (MOLT-4 leukemia)	GI50 (NCI-H522 lung)	GI50 (CAKI-1 renal)	GI50 (OVCAR-5 ovarian)	GI50 (NCI-H23 lung)	GI50 (OVCAR-3 ovarian)	GI50 (HS 578T breast)	GI50 (HOP-62 NSCLC)	GI50 (SK-OV-3 ovarian)
COc1cc(OC)c(/C=C\c2ccnc3ccccc23)c(OC)c1	17.2 µM	11.8 µM	18 µM	22.2 µM	19.3 µM	22.1 µM	12.8 µM	12.1 µM	18.6 µM	20.5 µM										
c1cc2[nH]ncc2cc1-c1nc2ccc3[nH]ncc3c2c2c1CCCC2	11.2 µM	> 20.9 µM	3.16 µM	5.62 µM	18.5 µM	7.44 µM	7.58 µM	13.7 µM	9.11 µM		2.27 µM	1.13 µM	0.424 µM	0.434 µM	3.06 µM	1.83 µM	1.78 µM	1.71 µM	1.39 µM	0.781 µM
Cc1ccc2ncnc(N(CC(C)C)CC(C)C)c2c1	32.4 µM	38.4 µM	> 100 µM	26.6 µM	43.7 µM	28.5 µM	31.5 µM	44.3 µM	31.2 µM	29.7 µM	15.5 µM	7.6 µM	18.9 µM	12.8 µM	20.1 µM	11.1 µM	16.3 µM	17.4 µM	15.5 µM	14.2 µM
Nc1nc(OCc2cc(Br)cs2)c2[nH]cnc2n1	> 100 µM	> 100 µM	> 100 µM	79.6 µM	> 100 µM	> 100 µM	> 100 µM	83.7 µM	> 100 µM	57.8 µM	33 µM	28.5 µM	26.8 µM	9.94 µM	29.8 µM	21.8 µM	28.1 µM	25.6 µM	31.4 µM	21.1 µM
CC1=CC(=C(c2ccc(N)cc2)c2ccc(N)cc2)C=CC1=N	15.2 µM and > 40.3 µM and 14.2 µM	6.77 µM and > 67 µM	17.8 µM and 7.03 µM	13.9 µM and 51.7 µM and 35.6 µM	14.4 µM and > 71.9 µM and > 100 µM	4.97 µM and 16.2 µM and 16.4 µM	5.49 µM and 15.1 µM and 5.5 µM		1.98 µM and 7.16 µM	8.04 µM and 25.2 µM and 17.2 µM	2.07 µM and 3.92 µM	1.49 µM	1.8 µM and 2.26 µM	3.35 µM and 8.97 µM	3.42 µM	0.828 µM	1.41 µM and 2.14 µM	0.209 µM and 0.841 µM	0.486 µM	2.44 µM and 4 µM
Cc1ccccc1-n1ncc(C(=O)c2ccccc2)c1N	> 25 µM	> 25 µM	> 25 µM	> 25 µM	> 25 µM	> 25 µM	> 25 µM	> 25 µM	> 25 µM	> 25 µM	> 25 µM	> 25 µM	> 25 µM	> 25 µM	> 25 µM	> 25 µM	> 25 µM	> 25 µM	> 25 µM	> 25 µM
CC1(C)CCC2=C(O1)c1ccccc1C(=O)C2=O	3.08 µM and 1.4 µM	7.92 µM	4.79 µM and 1.52 µM	3.13 µM and 2.47 µM	3.33 µM and 1.02 µM	3.91 µM and 1.09 µM	2.9 µM and 0.698 µM	6.32 µM and 0.643 µM	4.14 µM and 1.48 µM	3.94 µM	1.71 µM	2.67 µM	1.89 µM	1.74 µM	1.81 µM	1.57 µM	1.31 µM		1.82 µM	
Cn1cc(C2=C(c3cn(C)c4c([N+](=O)[O-])cccc34)C(=O)NC2=O)c2ccccc21	> 25 µM	> 25 µM	> 25 µM	> 25 µM	> 25 µM	> 25 µM	> 25 µM	> 25 µM	> 25 µM	> 25 µM	> 25 µM	> 25 µM	> 25 µM	> 25 µM	> 25 µM	> 25 µM	> 25 µM	> 25 µM	> 25 µM	> 25 µM
O=C1C(=O)c2c(nc3ccc(Br)cn23)-c2ccccc21	1.03 µM	2.22 µM	2.22 µM	3.01 µM	3.25 µM	2.51 µM	0.889 µM	2.23 µM	3.04 µM	3.09 µM	0.483 µM	0.447 µM	0.588 µM	1.52 µM	1.78 µM	0.372 µM	0.265 µM	0.438 µM	1.59 µM	1.71 µM
COC(=O)[C@]12CC[C@@H](C)[C@H](C)[C@@H]1C1=CC[C@@H]3[C@@]4(C)C(C=O)=C[C@@](C)(COC(C)=O)C4=CC[C@@]3(C)[C@]1(C)CC2	19.4 µM	6.12 µM	20.5 µM	17 µM	21.7 µM	19.3 µM	12.2 µM	30.3 µM	29.3 µM	50.4 µM	5.24 µM	1.82 µM	7.97 µM	3.66 µM	5.75 µM	4.53 µM	3.54 µM	5.07 µM	11.7 µM	18 µM
Clc1cccc(Cl)c1C1CSc2ccccc2N=C1c1ccccc1 (stereo unspecified)	18.3 µM	37.6 µM	14.5 µM	29.8 µM	13.2 µM	31.4 µM	13.4 µM	57.6 µM	41 µM	24.4 µM	5.74 µM	3.86 µM	3.52 µM	10.6 µM	3.88 µM	13.1 µM	3.92 µM	6.26 µM	20.7 µM	11.5 µM
COc1ccc(C(SCC(N)C(=O)O)(c2ccccc2)c2ccccc2)cc1 (stereo unspecified)	0.7 µM	> 100 µM	> 100 µM	> 100 µM	> 100 µM	> 87.4 µM	0.503 µM	3.1 µM	> 84.5 µM	> 100 µM	0.272 µM	0.439 µM	0.104 µM	0.457 µM	4.82 µM	0.414 µM	0.0677 µM	0.0432 µM	0.392 µM	0.19 µM
NC(=O)c1ccc(NN=O)nc1	> 100 µM	> 100 µM	> 100 µM	> 100 µM	> 100 µM	> 100 µM	> 100 µM	> 100 µM	> 100 µM	> 100 µM										
